What was measured:
Type in all cases: cell-based
M1 muscarinic receptor = molecular target: T1, M1 muscarinic receptor (Homo sapiens, UniProt P11229); assay: Functional mobilization of intracellular calcium (FLIPR), M1-CHO cells; details: for M1 Activity: M1-CHO cells, calcium mobilization (FLIPR)
T1 construct: expressed in transfected cells; host or cells: CHO (M1-CHO)
T1 sequence (P11229 1-460): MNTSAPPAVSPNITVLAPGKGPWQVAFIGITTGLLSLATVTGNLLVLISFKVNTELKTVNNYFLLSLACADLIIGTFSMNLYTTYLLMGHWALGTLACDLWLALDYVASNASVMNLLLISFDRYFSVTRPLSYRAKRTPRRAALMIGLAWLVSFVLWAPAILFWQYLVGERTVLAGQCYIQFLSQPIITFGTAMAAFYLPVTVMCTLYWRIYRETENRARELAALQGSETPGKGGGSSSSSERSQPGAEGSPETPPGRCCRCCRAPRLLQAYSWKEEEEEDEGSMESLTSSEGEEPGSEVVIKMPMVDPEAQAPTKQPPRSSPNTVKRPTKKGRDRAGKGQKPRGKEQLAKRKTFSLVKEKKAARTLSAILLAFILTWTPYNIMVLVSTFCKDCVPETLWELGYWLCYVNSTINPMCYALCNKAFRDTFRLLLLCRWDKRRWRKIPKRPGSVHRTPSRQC
Procedure, shortened: (§1)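 FLIPR fluorescence (ex 488, em 540 nm) recorded 60 sec after compound addition to dye-loaded CHO cells. Agonist mode: compound alone. Antagonist mode: 15 min compound pre-incubation, then carbachol at EC80, or co-application. Efficacy expressed as % of maximal carbachol response.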

M2 muscarinic receptor = molecular target: T2, M2 muscarinic receptor (Homo sapiens, UniProt P08172); assay: Functional mobilization of intracellular calcium (FLIPR), M2-CHO cells; details: for M2 Activity: M2-CHO cells, calcium mobilization (FLIPR)
T2 construct: expressed in transfected cells; host or cells: CHO (M2-CHO)
T2 sequence (P08172 1-466): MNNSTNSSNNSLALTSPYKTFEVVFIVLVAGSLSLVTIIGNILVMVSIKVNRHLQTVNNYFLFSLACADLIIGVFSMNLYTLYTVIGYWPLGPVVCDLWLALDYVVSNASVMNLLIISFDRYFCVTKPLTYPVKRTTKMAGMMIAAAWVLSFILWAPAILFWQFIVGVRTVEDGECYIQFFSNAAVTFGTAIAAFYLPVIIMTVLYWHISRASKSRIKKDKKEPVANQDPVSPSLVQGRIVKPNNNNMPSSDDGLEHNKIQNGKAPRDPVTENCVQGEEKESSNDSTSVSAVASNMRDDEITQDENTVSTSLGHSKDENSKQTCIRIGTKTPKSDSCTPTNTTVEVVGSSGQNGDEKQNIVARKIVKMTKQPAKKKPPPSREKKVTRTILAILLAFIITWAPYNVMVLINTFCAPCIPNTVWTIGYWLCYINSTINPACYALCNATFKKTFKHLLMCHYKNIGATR
Procedure, shortened: as §1

M3 muscarinic receptor = molecular target: T3, M3 muscarinic receptor (Homo sapiens, UniProt P20309); assay: Functional mobilization of intracellular calcium (FLIPR), M3-CHO cells; details: for M3 Activity: M3-CHO cells, calcium mobilization (FLIPR)
T3 construct: expressed in transfected cells; host or cells: CHO (M3-CHO)
T3 sequence (P20309 whole entry): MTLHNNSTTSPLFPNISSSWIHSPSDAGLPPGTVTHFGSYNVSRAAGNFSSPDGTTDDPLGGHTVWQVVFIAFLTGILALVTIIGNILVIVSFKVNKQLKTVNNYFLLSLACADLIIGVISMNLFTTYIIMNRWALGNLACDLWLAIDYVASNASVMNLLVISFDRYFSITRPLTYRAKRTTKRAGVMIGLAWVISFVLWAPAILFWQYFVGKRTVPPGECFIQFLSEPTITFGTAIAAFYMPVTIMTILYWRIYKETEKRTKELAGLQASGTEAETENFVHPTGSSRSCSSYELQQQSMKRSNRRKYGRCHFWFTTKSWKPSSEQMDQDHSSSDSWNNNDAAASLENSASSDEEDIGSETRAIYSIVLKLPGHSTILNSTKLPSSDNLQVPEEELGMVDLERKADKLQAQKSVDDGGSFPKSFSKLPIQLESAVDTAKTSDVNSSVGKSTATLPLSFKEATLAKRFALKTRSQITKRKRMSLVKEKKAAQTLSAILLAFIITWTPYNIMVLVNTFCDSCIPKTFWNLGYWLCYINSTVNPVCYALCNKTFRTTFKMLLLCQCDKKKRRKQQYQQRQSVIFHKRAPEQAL
Procedure, shortened: as §1

M4 muscarinic receptor = molecular target: T4, M4 muscarinic receptor (Homo sapiens, UniProt P08173); assay: Functional mobilization of intracellular calcium (FLIPR), M4-CHO cells; details: for M4 Activity: M4-CHO cells, calcium mobilization (FLIPR)
T4 construct: expressed in transfected cells; host or cells: CHO (M4-CHO)
T4 sequence (P08173 1-479): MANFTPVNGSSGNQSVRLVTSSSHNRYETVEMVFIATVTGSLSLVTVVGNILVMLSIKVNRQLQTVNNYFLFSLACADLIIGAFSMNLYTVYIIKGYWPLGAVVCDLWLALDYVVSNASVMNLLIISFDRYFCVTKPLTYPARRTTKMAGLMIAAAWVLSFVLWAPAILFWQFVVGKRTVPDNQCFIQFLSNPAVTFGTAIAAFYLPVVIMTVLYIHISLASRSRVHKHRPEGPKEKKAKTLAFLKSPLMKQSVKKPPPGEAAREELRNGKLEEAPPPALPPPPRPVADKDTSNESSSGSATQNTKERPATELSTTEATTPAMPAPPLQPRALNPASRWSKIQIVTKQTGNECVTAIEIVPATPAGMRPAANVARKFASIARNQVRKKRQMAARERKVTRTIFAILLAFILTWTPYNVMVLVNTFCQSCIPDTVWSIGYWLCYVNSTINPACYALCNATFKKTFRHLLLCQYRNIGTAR
Procedure, shortened: as §1

[1] = 100% efficacy = maximum response obtained with the Carbachol control

Row | Emax (M1 muscarinic receptor; [1]) | Emax (M2 muscarinic receptor; [1]) | Emax (M3 muscarinic receptor; [1]) | Emax (M4 muscarinic receptor; [1]) | Structure (SMILES) | M1 Activity (M1 muscarinic receptor) | M2 Activity (M2 muscarinic receptor) | M3 Activity (M3 muscarinic receptor) | M4 Activity (M4 muscarinic receptor) | M1 Efficacy (M1 muscarinic receptor; [1]) | M2 Efficacy (M2 muscarinic receptor; [1]) | M3 Efficacy (M3 muscarinic receptor; [1]) | M4 Efficacy (M4 muscarinic receptor; [1])
1 | 25 to 100% | < 25% | < 25% | 25 to 100% | COc1ccccc1C1CCN(C2CC(c3ccccc3)C(c3ccccc3)C2)CC1 (centres unmarked) [Compound 339] | + (activity was measured to be greater than 5.0 μM) | + (activity was measured to be greater than 5.0 μM) | + (activity was measured to be greater than 5.0 μM) | + (activity was measured to be greater than 5.0 μM) |  |  |  | 
2 | 25 to 100% | < 25% | < 25% | 25 to 100% | COc1ccc(-c2ccc(C#N)cc2)cc1C1CCN(C2CCCCC2)CC1 [Compound 342] | + (activity was measured to be greater than 5.0 μM) | + (activity was measured to be greater than 5.0 μM) | + (activity was measured to be greater than 5.0 μM) | ++ (activity was measured to be from 1.0 μM to 5.0 μM) |  |  |  | 
3 | 25 to 100% | < 25% | < 25% | 25 to 100% | CCOC(=O)N1CCC(CN2CCC(c3cc(-c4ccc(C#N)cc4)ccc3OC)CC2)CC1 [Compound 345] | ++ (activity was measured to be from 1.0 μM to 5.0 μM) | + (activity was measured to be greater than 5.0 μM) | + (activity was measured to be greater than 5.0 μM) | +++ (activity was measured to be less than 1.0 μM) |  |  |  | 
4 | < 25% | < 25% | < 25% | 25 to 100% | CNC(=O)c1ccc(-c2ccc(OC)c(C3CCN(C4CCCCC4)CC3)c2)cc1Cl [Compound 353] | + (activity was measured to be greater than 5.0 μM) | + (activity was measured to be greater than 5.0 μM) | + (activity was measured to be greater than 5.0 μM) | ++ (activity was measured to be from 1.0 μM to 5.0 μM) |  |  |  | 
5 | 25 to 100% | 25 to 100% | < 25% | 25 to 100% | COc1ccc(F)cc1C1CCN([C@@H]2C[C@H]3CC[C@H]2C3)CC1 [Compound 354] | +++ (activity was measured to be less than 1.0 μM) | ++ (activity was measured to be from 1.0 μM to 5.0 μM) | + (activity was measured to be greater than 5.0 μM) | +++ (activity was measured to be less than 1.0 μM) |  |  |  | 
6 | 25 to 100% | 25 to 100% | < 25% | 25 to 100% | COc1ccc(Cl)cc1C1(F)CCN(C2CC3CCC(C3)C2)CC1 (centres unmarked) [Compound 356] | + (activity was measured to be greater than 5.0 μM) | + (activity was measured to be greater than 5.0 μM) | + (activity was measured to be greater than 5.0 μM) | +++ (activity was measured to be less than 1.0 μM) |  |  |  | 

The remaining lines, values behind:

Row | Structure (SMILES) | Emax (M1 muscarinic receptor; [1]) | Emax (M2 muscarinic receptor; [1]) | Emax (M3 muscarinic receptor; [1]) | Emax (M4 muscarinic receptor; [1]) | M1 Activity (M1 muscarinic receptor) | M2 Activity (M2 muscarinic receptor) | M3 Activity (M3 muscarinic receptor) | M4 Activity (M4 muscarinic receptor) | M1 Efficacy (M1 muscarinic receptor; [1]) | M2 Efficacy (M2 muscarinic receptor; [1]) | M3 Efficacy (M3 muscarinic receptor; [1]) | M4 Efficacy (M4 muscarinic receptor; [1])
7 | COc1ccc(F)cc1C1(O)CCN(C[C@H]2C[C@H]3C=C[C@H]2C3)CC1 [Compound 340] | 25 to 100% | 25 to 100% | < 25% | 25 to 100% | + (activity was measured to be greater than 5.0 μM) | + (activity was measured to be greater than 5.0 μM) | + (activity was measured to be greater than 5.0 μM) | +++ (activity was measured to be less than 1.0 μM) |  |  |  | 
8 | Cc1ccc(C)c(C2CCN(C3CC4CCC3C4)CC2)c1 (centres unmarked) [Compound 341] | < 25% | < 25% |  | 25 to 100% | + (activity was measured to be greater than 5.0 μM) | + (activity was measured to be greater than 5.0 μM) | + (activity was measured to be greater than 5.0 μM) | ++ (activity was measured to be from 1.0 μM to 5.0 μM) |  |  |  | 
9 | FC(F)(F)c1ccccc1C1CCN(C2CC3CCC(C3)C2)CC1 (centres unmarked) [Compound 343] | 25 to 100% | < 25% | < 25% | 25 to 100% | + (activity was measured to be greater than 5.0 μM) | + (activity was measured to be greater than 5.0 μM) | + (activity was measured to be greater than 5.0 μM) | +++ (activity was measured to be less than 1.0 μM) |  |  |  | 
10 | COc1ccccc1C1CCN(CC2CC2)CC1 [Compound 346] | < 25% | < 25% | < 25% | < 25% | + (activity was measured to be greater than 5.0 μM) | + (activity was measured to be greater than 5.0 μM) | + (activity was measured to be greater than 5.0 μM) | + (activity was measured to be greater than 5.0 μM) |  |  |  | 
11 | COc1ccc(-c2ccccc2C(N)=O)cc1C1CCN([C@H]2C[C@H]3CC[C@H]2C3)CC1 [Compound 347] | < 25% | < 25% | < 25% | 25 to 100% | + (activity was measured to be greater than 5.0 μM) | + (activity was measured to be greater than 5.0 μM) | + (activity was measured to be greater than 5.0 μM) | ++ (activity was measured to be from 1.0 μM to 5.0 μM) |  |  |  | 
12 | COc1cc(F)ccc1C1CCN(C2CCOCC2)CC1 [Compound 349] | 25 to 100% | < 25% | < 25% | 25 to 100% | + (activity was measured to be greater than 5.0 μM) | + (activity was measured to be greater than 5.0 μM) | + (activity was measured to be greater than 5.0 μM) | +++ (activity was measured to be less than 1.0 μM) |  |  |  | 
13 | C=CCON=C1CCC(N2CCC(c3cc(Cl)ccc3OC)CC2)CC1 (centres unmarked) [Compound 350] |  |  |  |  | +++ (activity was measured to be less than 1.0 μM) | ++ (activity was measured to be from 1.0 μM to 5.0 μM) | + (activity was measured to be greater than 5.0 μM) | +++ (activity was measured to be less than 1.0 μM) | ++ (efficacy was calculated to be from 100% to 25%) | + (efficacy was calculated to be less than 25%) | + (efficacy was calculated to be less than 25%) | ++ (efficacy was calculated to be from 100% to 25%)
14 | COc1ccc(-c2ccc(C#N)cc2)cc1C1CCN(C2CCOCC2)CC1 [Compound 352] | 25 to 100% | < 25% | < 25% | 25 to 100% | + (activity was measured to be greater than 5.0 μM) | + (activity was measured to be greater than 5.0 μM) | + (activity was measured to be greater than 5.0 μM) | + (activity was measured to be greater than 5.0 μM) |  |  |  | 
15 | CCOC(=O)N1C2CCC1CC(N1CCC(c3ccccc3OC(F)(F)F)CC1)C2 (centres unmarked) [Compound 355] | 25 to 100% | < 25% | < 25% | 25 to 100% | +++ (activity was measured to be less than 1.0 μM) | + (activity was measured to be greater than 5.0 μM) | + (activity was measured to be greater than 5.0 μM) | +++ (activity was measured to be less than 1.0 μM) |  |  |  | 

From patent publication US7880007B2, “Bicyclic substituted phenyl piperidine modulators of muscarinic receptors” (Vertex Pharmaceuticals Incorporated, priority 2004, dated 2011)
